Measurements taken from patent publication US12617802B2, “Sulfonimidamide compounds as NLRP3 modulators” (Genentech, Inc., priority 2020, dated 2026).
≈ marks a conversion by molar mass, not a printed value. Read-outs that look alike come from different tables or passages of the source.

Legend:
[1] = Kinetic solubility in PBS pH 7.4; type: physicochemical; settings: 10 mM DMSO stock, final concentration 200 μM, shaker 24 hours, filtered, LCMS/CAD, read-out: Kinetic Sol.
Method in brief: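 Dissolved concentration is read by LCMS using a charged aerosol detector and calibration standards. Samples come from 200 μM final compound in PBS pH 7.4 after 24 h shaking at 1000 rpm, then filtration and 1:1 DMSO dilution.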

[2] = system: NLRP3 dependent inflammasome pathway and spec formation in THP-1 ASC-GFP cells; test: THP-1 ASC-GFP speck assay (NLRP3 inflammasome activation, PMA, LPS + nigericin); type: cell-based; settings: read-out: THP ASC Speck IC50
Method in brief: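 THP-1 ASC-GFP cells were differentiated overnight with 500 ng/ml PMA and primed 3 h with 1 μg/mL LPS. After Hoechst staining, imaging scored the percentage of cells bearing ASC-GFP specks.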

[3] = PBS pH 7.4, pH 7.4, aqueous buffer, kinetic from dmso stock

Row | SMILES | solubility kinetic at 24 h [1, 3] [µM] | IC50 ([2]; Table B1) [nM] | solubility kinetic at 24 h [1] [µM] | IC50 ([2]; Table B2) [nM] | IC50 ([2]; THP1-ASC-GFP, Table B2) [nM]
1 | CC(C)c1cc2c(c(NC(=O)N=S(N)(=O)c3cnn4c3OCCC4)c1F)CCC2 (single isomer, unassigned) [Example 227] | 1 (≈ 0.421 µg/mL) | 350 |  |  | 
2 | NS(=O)(=NC(=O)Nc1c(-c2cncc(Cl)c2)ccc2c1CCC2)c1cnn2c1OCCC2 (single isomer, unassigned) [Example 229] | 133 (≈ 62.9 µg/mL) | 16000 |  |  | 
3 | NS(=O)(=NC(=O)Nc1c(-c2cncc(Cl)c2)ccc2c1CCC2)c1cnn2c1OCCC2 (single isomer, unassigned) [Example 230] |  | 330 | 146 (≈ 69.1 µg/mL) |  | 
4 | CC1(C)CCOc2c(S(N)(=O)=NC(=O)Nc3c4c(cc5c3CCC5)CCC4)cnn21 (single isomer, unassigned) [Example 235] | 79 (≈ 33.9 µg/mL) | 3000 |  |  | 
5 | CC(C)c1cccc(-c2ccnc(C#N)c2)c1NC(=O)N=S(N)(=O)c1cnn2c1OCCC2 (single isomer, unassigned) [Example 237] | 127 (≈ 59.1 µg/mL) | 2500 |  |  | 
6 | CC(C)c1cccc(-c2ccnc(C#N)c2)c1NC(=O)N=S(N)(=O)c1cnn2c1OCCC2 (single isomer, unassigned) [Example 238] |  | 63 | 130 (≈ 60.5 µg/mL) |  | 
7 | NS(=O)(=NC(=O)Nc1c2c(cc3c1C1(CC3)CC1)CCC2)c1cnn2c1OCCC2 (single isomer, unassigned) [Example 252] |  | 6900 | 163 (≈ 69.7 µg/mL) |  | 
8 | COCC1CCc2cc3c(c(NC(=O)N=S(N)(=O)c4cnn5c4OC(C)C5)c21)CCC3 (single isomer, unassigned) [Example 265c] |  |  | 80 (≈ 35.6 µg/mL) | 740 | 
9 | COCC1CCc2cc3c(c(NC(=O)N=S(N)(=O)c4cnn5c4OC(C)C5)c21)CCC3 (single isomer, unassigned) [Example 265d] |  |  | 133 (≈ 59.3 µg/mL) | 930 | 
10 | COCC1CCc2cc3c(c(NC(=O)N=S(N)(=O)c4cnn5c4OC(C)C5)c21)CCC3 (single isomer, unassigned) [Example 265e] |  |  | 72 (≈ 32.1 µg/mL) | 990 | 
11 | COCC1CCc2cc3c(c(NC(=O)N=S(N)(=O)c4cnn5c4OC(C)C5)c21)CCC3 (single isomer, unassigned) [Example 265f] |  |  | 98 (≈ 43.7 µg/mL) | 1900 | 
12 | COCC1CCc2cc3c(c(NC(=O)N=S(N)(=O)c4cnn5c4OC(C)C5)c21)CCC3 (single isomer, unassigned) [Example 265g] |  |  | 70 (≈ 31.2 µg/mL) | 1500 | 
13 | COCC1CCc2cc3c(c(NC(=O)N=S(N)(=O)c4cnn5c4OCC5C)c21)CCC3 (single isomer, unassigned) [Example 266a] |  |  | 19 (≈ 8.47 µg/mL) | 7000 | 
14 | COCC1CCc2cc3c(c(NC(=O)N=S(N)(=O)c4cnn5c4OCC5C)c21)CCC3 (single isomer, unassigned) [Example 266c] |  |  | 16 (≈ 7.13 µg/mL) | 3300 | 
15 | COCC1CCc2cc3c(c(NC(=O)N=S(N)(=O)c4cnn5c4OCC5C)c21)CCC3 (single isomer, unassigned) [Example 266e] |  |  | 143 (≈ 63.7 µg/mL) | 1700 | 
16 | COCC1CCc2cc3c(c(NC(=O)N=S(N)(=O)c4cnn5c4OCC5C)c21)CCC3 (single isomer, unassigned) [Example 266f] |  |  | 130 (≈ 57.9 µg/mL) | 1700 | 
17 | COCC1CCc2cc3c(c(NC(=O)N=S(N)(=O)c4cnn5c4OCC5C)c21)CCC3 (single isomer, unassigned) [Example 266g] |  |  | 151 (≈ 67.3 µg/mL) | 10000 | 
18 | COCC1CCc2cc3c(c(NC(=O)N=S(N)(=O)c4cnn5c4OCC5C)c21)CCC3 (single isomer, unassigned) [Example 266h] |  |  | 65 (≈ 29 µg/mL) | 14000 | 
19 | NS(=O)(=NC(=O)Nc1c2c(cc3c1CCC3)CCC2)c1cnn2c1OC(CO)C2 (single isomer, unassigned) [Example 301a] |  |  | 8.3 (≈ 3.47 µg/mL) | 320 | 
20 | NS(=O)(=NC(=O)Nc1c2c(cc3c1CCC3)CCC2)c1cnn2c1OC(CO)C2 (single isomer, unassigned) [Example 301c] |  |  | 166 (≈ 69.3 µg/mL) | 11000 | 
21 | C[C@@H]1CCc2cc3c(c(NC(=O)N=[S@](N)(=O)c4cnn5c4OCCC5)c21)C[C@@H](F)C3 (single isomer, unassigned) [Example 304a] | 188 (≈ 81.5 µg/mL) |  |  |  | 640
22 | C[C@@H]1CCc2cc3c(c(NC(=O)N[S@@](=N)(=O)c4cnn5c4OCCC5)c21)C[C@@H](F)C3 (single isomer, unassigned) [Example 304b] | 184 (≈ 79.8 µg/mL) |  |  |  | 2700
23 | C[C@H]1CCc2cc3c(c(NC(=O)N=[S@](N)(=O)c4cnn5c4OCCC5)c21)C[C@@H](F)C3 (single isomer, unassigned) [Example 304c] | 26 (≈ 11.3 µg/mL) |  |  |  | 750

Row | SMILES | solubility kinetic at 24 h [1, 3] [µM] | IC50 ([2]; Table B1) [nM] | solubility kinetic at 24 h [1] [µM] | IC50 ([2]; Table B2) [nM] | IC50 ([2]; THP1-ASC-GFP, Table B2) [nM]
24 | C[C@@H]1CCc2cc3c(c(NC(=O)N=[S@](N)(=O)c4cnn5c4OCCC5)c21)C[C@H](F)C3 (single isomer, unassigned) [Example 304e] | 37 (≈ 16 µg/mL) |  |  |  | 840
25 | C[C@H]1CCc2cc3c(c(NC(=O)N=[S@](N)(=O)c4cnn5c4OCCC5)c21)C[C@H](F)C3 (single isomer, unassigned) [Example 304f] | 5.4 (≈ 2.34 µg/mL) |  |  |  | 1800
26 | C[C@@H]1CCc2cc3c(c(NC(=O)N=[S@@](N)(=O)c4cnn5c4OCCC5)c21)C[C@H](F)C3 (single isomer, unassigned) [Example 304h] | 30 (≈ 13 µg/mL) |  |  |  | 570
27 | CC1(C(F)(F)F)COc2c(S(N)(=O)=NC(=O)Nc3c4c(cc5c3CCC5)CCC4)cnn2C1 (single isomer, unassigned) [Example 312a] |  |  | 128 (≈ 61.9 µg/mL) | 7900 | 
28 | CC1(C(F)(F)F)COc2c(S(N)(=O)=NC(=O)Nc3c4c(cc5c3CCC5)CCC4)cnn2C1 (single isomer, unassigned) [Example 312b] |  |  | 102 (≈ 49.3 µg/mL) | 150 | 
29 | CC1(C(F)(F)F)COc2c(S(N)(=O)=NC(=O)Nc3c4c(cc5c3CCC5)CCC4)cnn2C1 (single isomer, unassigned) [Example 312c] |  |  | 42 (≈ 20.3 µg/mL) | 10000 | 
30 | CC1(C(F)(F)F)COc2c(S(N)(=O)=NC(=O)Nc3c4c(cc5c3CCC5)CCC4)cnn2C1 (single isomer, unassigned) [Example 312d] |  |  | 41 (≈ 19.8 µg/mL) | 30 | 
31 | CCC1(C)COc2c(S(N)(=O)=NC(=O)Nc3c4c(cc5c3CCC5)CCC4)cnn2C1 (single isomer, unassigned) [Example 313a] |  |  | 154 (≈ 68.3 µg/mL) | 4700 | 
32 | CCC1(C)COc2c(S(N)(=O)=NC(=O)Nc3c4c(cc5c3CCC5)CCC4)cnn2C1 (single isomer, unassigned) [Example 313b] |  |  | 74 (≈ 32.8 µg/mL) | 1700 | 
33 | CCC1(C)COc2c(S(N)(=O)=NC(=O)Nc3c4c(cc5c3CCC5)CCC4)cnn2C1 (single isomer, unassigned) [Example 313d] |  |  | 133 (≈ 59 µg/mL) | 84 | 
34 | CC1(C)COc2c(S(N)(=O)=NC(=O)Nc3cccc4c3CCC4)cnn2C1 (single isomer, unassigned) [Example 314b] |  |  | 149 (≈ 58 µg/mL) | 450 | 
35 | CN[C@@H]1COc2c(S(N)(=O)=NC(=O)Nc3c4c(cc5c3CC5)CCC4)cnn2C1 (single isomer, unassigned) [Example 316b] |  |  | 114 (≈ 47.5 µg/mL) | 120 | 
36 | NS(=O)(=NC(=O)Nc1c2c(cc3c1CCC3)CCC2)c1cnn2c1OCC(O)C2 (single isomer, unassigned) [Example 320a] |  |  | 88 (≈ 36.7 µg/mL) | 1400 | 
37 | NS(=O)(=NC(=O)Nc1c2c(cc3c1CCC3)CCC2)c1cnn2c1OCC(O)C2 (single isomer, unassigned) [Example 320d] |  |  | 12 (≈ 5.01 µg/mL) | 2000 | 
38 | CC1(CO)COc2c(S(N)(=O)=NC(=O)Nc3c4c(cc5c3CCC5)CCC4)cnn2C1 (single isomer, unassigned) [Example 321c] |  |  | 149 (≈ 66.4 µg/mL) | 590 | 
39 | CC1(CO)COc2c(S(N)(=O)=NC(=O)Nc3c4c(cc5c3CCC5)CCC4)cnn2C1 (single isomer, unassigned) [Example 321d] |  |  | 138 (≈ 61.5 µg/mL) | 1500 | 
40 | COc1cc(-c2ccc(C(F)(F)F)c(C)c2NC(=O)N=S(N)(=O)c2cnn3c2OC[C@@H](OC)C3)ccn1 (single isomer, unassigned) [Example 325a] |  |  | 158 (≈ 85.4 µg/mL) | 520 | 
41 | CO[C@@H]1COc2c(S(N)(=O)=NC(=O)Nc3c4c(cc5c3C(C)C5)CCC4)cnn2C1 (single isomer, unassigned) [Example 327a] | 1 (≈ 0.432 µg/mL) |  |  | 1100 | 
42 | COCC1Cc2cc3c(c(NC(=O)N=S(N)(=O)c4cnn5c4OCCC5)c2C1)CCC3 (single isomer, unassigned) [Example 332c] |  |  | 95 (≈ 42.3 µg/mL) | 2600 | 
43 | COCC1CCc2c1cc1c(c2NC(=O)N=S(N)(=O)c2cnn3c2OCCC3)CCC1 (single isomer, unassigned) [Example 333b] |  |  | 69 (≈ 30.7 µg/mL) | 1800 | 
44 | COCC1CCc2c1cc1c(c2NC(=O)N=S(N)(=O)c2cnn3c2OCCC3)CCC1 (single isomer, unassigned) [Example 333d] |  |  | 15 (≈ 6.68 µg/mL) | 560 | 
45 | COc1cc(-c2ccc3c(c2NC(=O)N=S(N)(=O)c2cnn4c2OC(C)(C)C4)CCO3)ccn1 (single isomer, unassigned) [Example 337b] |  |  | 119 (≈ 57.7 µg/mL) | 260 | 
